From the NIST ThermoML archive (doi:10.1016/j.jct.2006.05.008)

Test: molar heat capacity at constant pressure
Details: 101.33 kPa, Small (less than 1 g) adiabatic calorimetry

CCCCn1cc[n+](C)c1.[Br-] [1-butyl-3-methylimidazolium bromide]
Details	molar heat capacity at constant pressure [J/K/mol]
5 K, Crystal	0.594
5.112 K, Crystal	0.6398
5.416 K, Glass	1.391
5.455 K, Crystal	0.7976
5.698 K, Glass	1.608
5.764 K, Crystal	0.9598
6.014 K, Glass	1.871
6.078 K, Crystal	1.144
6.368 K, Glass	2.187
6.428 K, Crystal	1.37
6.758 K, Glass	2.559
6.809 K, Crystal	1.648
7.151 K, Glass	2.969
7.192 K, Crystal	1.957
7.546 K, Glass	3.418
7.578 K, Crystal	2.288
7.943 K, Glass	3.889
7.966 K, Crystal	2.656
8.343 K, Glass	4.396
8.356 K, Crystal	3.052
8.743 K, Glass	4.921
8.747 K, Crystal	3.473
9.141 K, Crystal	3.927
9.142 K, Glass	5.507
9.535 K, Crystal	4.4
9.542 K, Glass	6.116
9.931 K, Crystal	4.904
9.941 K, Glass	6.777
10 K, Crystal	5
10.43 K, Crystal	5.581
10.45 K, Glass	7.669
11.04 K, Crystal	6.447
11.06 K, Glass	8.866
11.65 K, Crystal	7.367
11.68 K, Glass	9.609
12.26 K, Crystal	8.338
12.33 K, Glass	10.33
12.88 K, Crystal	9.361
12.97 K, Glass	11.38
13.49 K, Crystal	10.43
13.59 K, Glass	12.45
14.11 K, Crystal	11.52
14.22 K, Glass	13.57
14.73 K, Crystal	12.65
14.85 K, Glass	14.68
15 K, Crystal	13.15
15.46 K, Crystal	14.04
15.59 K, Glass	16.03
16.3 K, Crystal	15.65
16.44 K, Glass	17.61
17.14 K, Crystal	17.33
17.29 K, Glass	19.2
17.98 K, Crystal	19.01
18.14 K, Glass	20.83
18.82 K, Crystal	20.74
18.99 K, Glass	22.44
19.66 K, Crystal	22.48
19.84 K, Glass	24.05
20 K, Crystal	23.22
20.8 K, Crystal	24.92
20.98 K, Glass	26.32
22.23 K, Crystal	27.96
22.44 K, Glass	29.08
23.67 K, Crystal	30.95
23.89 K, Glass	31.88
25 K, Crystal	33.71
25.11 K, Crystal	33.93
25.34 K, Glass	34.61
26.55 K, Crystal	36.89
26.79 K, Glass	37.3
28 K, Crystal	39.85
28.25 K, Glass	39.98
29.46 K, Crystal	42.71
29.71 K, Glass	42.64
30 K, Crystal	43.79
30.91 K, Crystal	45.58
31.17 K, Glass	45.28
32.37 K, Crystal	48.31
32.64 K, Glass	47.85
33.83 K, Crystal	50.92
34.1 K, Glass	50.34
35 K, Crystal	52.97
35.29 K, Crystal	53.48
35.56 K, Glass	52.74
36.75 K, Crystal	55.93
37.02 K, Glass	55.06
38.21 K, Crystal	58.33
38.48 K, Glass	57.36
39.67 K, Crystal	60.64
39.95 K, Glass	59.57
40 K, Crystal	61.09
41.38 K, Crystal	63.18
41.66 K, Glass	62.09
43.35 K, Crystal	66.08
43.62 K, Glass	64.96
45 K, Crystal	68.34
45.33 K, Crystal	68.81
45.59 K, Glass	67.7
47.31 K, Crystal	71.45
47.56 K, Glass	70.47
49.28 K, Crystal	73.96
49.53 K, Glass	73.04
50 K, Crystal	74.81
51.25 K, Crystal	76.33
51.5 K, Glass	75.54
53.22 K, Crystal	78.7
53.47 K, Glass	77.99
55.2 K, Crystal	80.87
55.43 K, Glass	80.39
57.18 K, Crystal	82.96
57.4 K, Glass	82.69
59.15 K, Crystal	84.96
59.37 K, Glass	85.02
60 K, Crystal	85.89
61.12 K, Crystal	87.04
61.34 K, Glass	87.33
63.1 K, Crystal	89.03
63.31 K, Glass	89.56
65.08 K, Crystal	90.98
65.29 K, Glass	91.73
67.06 K, Crystal	92.73
67.27 K, Glass	93.78
69.04 K, Crystal	94.46
69.25 K, Glass	95.85
70 K, Crystal	95.2
71.02 K, Crystal	96.12
71.23 K, Glass	97.82
73.01 K, Crystal	97.71
73.21 K, Glass	99.78
75 K, Crystal	99.35
75.2 K, Glass	101.73
76.99 K, Crystal	101.08
77.19 K, Glass	103.84
78.99 K, Crystal	102.78
79.19 K, Glass	105.86
79.88 K, Crystal	103.13
80 K, Crystal	103.3
80.98 K, Crystal	104.4
81.18 K, Glass	107.71
81.99 K, Glass	108.36
82.98 K, Crystal	105.64
83.34 K, Crystal	105.95
84.53 K, Glass	110.36
84.99 K, Crystal	106.91
85.34 K, Crystal	107.22
86.53 K, Glass	112.03
87.34 K, Crystal	108.66
88.52 K, Glass	113.8
89.34 K, Crystal	110.09
90 K, Crystal	110.5
90.52 K, Glass	115.58
91.34 K, Crystal	111.54
92.52 K, Glass	117.14
93.34 K, Crystal	112.75
94.51 K, Glass	118.71
95.34 K, Crystal	114.08
96.52 K, Glass	120.45
97.35 K, Crystal	115.46
98.52 K, Glass	121.83
99.35 K, Crystal	116.72
100 K, Crystal	117.1
100.53 K, Glass	123.29
101.36 K, Crystal	118.12
102.54 K, Glass	125.09
103.37 K, Crystal	119.58
104.55 K, Glass	126.48
105.39 K, Crystal	120.44
106.56 K, Glass	127.9
107.41 K, Crystal	121.58
108.57 K, Glass	129.45
109.43 K, Crystal	122.78
110 K, Crystal	123.1
110.59 K, Glass	130.89
111.44 K, Crystal	123.99
112.61 K, Glass	132.26
113.47 K, Crystal	125.16
114.64 K, Glass	133.7
115.5 K, Crystal	126.62
116.67 K, Glass	135.05
117.53 K, Crystal	127.63
118.69 K, Glass	136.36
119.57 K, Crystal	128.57
120 K, Crystal	128.8
120.72 K, Glass	137.61
121.6 K, Crystal	129.71
